Measurements: ChEMBL document CHEMBL4304836, “N-Trifluoromethylthiolated Sulfonimidamides and Sulfoximines: Anti-microbial, Anti-mycobacterial, and Cytotoxic Activity” (ACS Med Chem Lett, 2019)
Converted amounts (≈) assume the structure as drawn.

What was measured:
Escherichia coli = test: Antibacterial activity against Escherichia coli ATCC 25922 assessed as reduction in bacterial cell growth incubated for 24 hrs by two fold serial dilution; format: functional; conditions: ATCC 25922, 24 h
Staphylococcus aureus = test: Antibacterial activity against Staphylococcus aureus ATCC 25923 assessed as reduction in bacterial cell growth incubated for 24 hrs by two fold serial dilution; format: functional; conditions: ATCC 25923, 24 h
Pseudomonas aeruginosa = test: Antibacterial activity against Pseudomonas aeruginosa ATCC 27853 assessed as reduction in bacterial cell growth incubated for 24 hrs by two fold serial dilution; format: functional; conditions: ATCC 27853, 24 h
Bacillus subtilis = test: Antibacterial activity against Bacillus subtilis ATCC 6051 assessed as reduction in bacterial cell growth incubated for 24 hrs by two fold serial dilution; format: functional; conditions: ATCC 6051, 24 h
HepG2 [1] = test: Cytotoxicity against human HepG2 cells incubated for 6 hrs by MTT assay; format: functional, cell-based; conditions: HepG2, 6 h
[2] = test system: Mycobacteroides abscessus; test: Antimycobacterial activity against Mycobacterium abscessus ATCC 19977 assessed as reduction in bacterial cell growth incubated for 3 days by broth dilution method; format: functional; conditions: ATCC 19977, 72 h
[3] = test system: Mycobacterium tuberculosis; test: Antimycobacterial activity against Mycobacterium tuberculosis H37Rv assessed as reduction in bacterial cell growth incubated for 14 days by broth dilution method; format: functional; conditions: 336 h
HepG2 [4] = test: Cytotoxicity against human HepG2 cells assessed as cell membrane leakage by measuring LDH released incubated for 6 hrs by spectrophotometry; format: functional; conditions: HepG2, 6 h

SMILES	MIC (Escherichia coli)	MIC (Staphylococcus aureus)	MIC (Pseudomonas aeruginosa)	MIC (Bacillus subtilis)	IC50 (HepG2 [1])	MIC [2]	MIC [3]	MCC (HepG2 [4])
O=S(=NSC(F)(F)F)(c1ccccc1)N1CCOCC1 (configuration not stated)	128 µg/mL (≈ 392 µM)	32 µg/mL (≈ 98 µM)	256 µg/mL (≈ 784 µM)	32 µg/mL (≈ 98 µM)	–	–	–	–
Cc1ccc(S(=O)(=NSC(F)(F)F)N2CCCCC2)cc1 (configuration not stated)	–	–	–	–	65 µg/mL (≈ 192 µM)	> 64 µg/mL	4 to 8 µg/mL (≈ 11.8 to 23.6 µM)	0.1 µg/mL
O=[N+]([O-])c1ccc(S(=O)(=NSC(F)(F)F)N2CCOCC2)cc1 (configuration not stated)	128 to 256 µg/mL (≈ 345 to 689 µM)	128 to 256 µg/mL (≈ 345 to 689 µM)	256 µg/mL (≈ 689 µM)	128 to 256 µg/mL (≈ 345 to 689 µM)	–	32 to 64 µg/mL (≈ 86.2 to 172 µM)	16 to 32 µg/mL (≈ 43.1 to 86.2 µM)	–
N=S(=O)(c1ccc([N+](=O)[O-])cc1)N1CCCC1 (configuration not stated)	–	–	–	–	–	> 64 µg/mL	> 64 µg/mL	–
N=S(=O)(c1ccccc1)N1CCOCC1 (configuration not stated)	–	–	–	–	–	> 64 µg/mL	> 64 µg/mL	–
CCN(CC)S(=O)(=NSC(F)(F)F)c1ccc([N+](=O)[O-])cc1 (configuration not stated)	–	32 to 64 µg/mL (≈ 89.5 to 179 µM)	> 512 µg/mL	16 to 32 µg/mL (≈ 44.8 to 89.5 µM)	–	16 to 32 µg/mL (≈ 44.8 to 89.5 µM)	16 to 32 µg/mL (≈ 44.8 to 89.5 µM)	–
O=[N+]([O-])c1ccc(S(=O)(=NSC(F)(F)F)N2CCCC2)cc1 (configuration not stated)	> 512 µg/mL	32 µg/mL (≈ 90 µM)	> 512 µg/mL	64 µg/mL (≈ 180 µM)	–	16 to 32 µg/mL (≈ 45 to 90 µM)	16 to 32 µg/mL (≈ 45 to 90 µM)	–
O=[N+]([O-])c1ccc(S(=O)(=NSC(F)(F)F)N2CCCCC2)cc1 (configuration not stated)	–	32 µg/mL (≈ 86.6 µM)	–	64 µg/mL (≈ 173 µM)	–	32 to 64 µg/mL (≈ 86.6 to 173 µM)	> 64 µg/mL	–
CS(=O)(=NSC(F)(F)F)c1ccccc1 (configuration not stated)	16 µg/mL (≈ 62.7 µM)	16 µg/mL (≈ 62.7 µM)	128 µg/mL (≈ 501 µM)	16 µg/mL (≈ 62.7 µM)	15 µg/mL (≈ 58.8 µM)	> 64 µg/mL	4 to 8 µg/mL (≈ 15.7 to 31.3 µM)	0.1 µg/mL
Cc1ccc(S(=O)(=NSC(F)(F)F)N2CCOCC2)cc1 (configuration not stated)	–	–	–	–	–	16 to 32 µg/mL (≈ 47 to 94 µM)	8 to 16 µg/mL (≈ 23.5 to 47 µM)	–
Cc1ccc(S(=O)(=NSC(F)(F)F)N2CCCC2)cc1 (configuration not stated)	> 512 µg/mL	64 µg/mL (≈ 197 µM)	> 512 µg/mL	32 µg/mL (≈ 98.6 µM)	–	–	–	–
O=S(=NSC(F)(F)F)(c1ccccc1)N1CCCC1 (configuration not stated)	128 µg/mL (≈ 412 µM)	32 µg/mL (≈ 103 µM)	512 µg/mL (≈ 1650 µM)	8 µg/mL (≈ 25.8 µM)	15 µg/mL (≈ 48.3 µM)	> 64 µg/mL	4 to 8 µg/mL (≈ 12.9 to 25.8 µM)	0.1 µg/mL
O=S(=NSC(F)(F)F)(c1ccccc1)c1ccccc1	256 µg/mL (≈ 807 µM)	32 µg/mL (≈ 101 µM)	256 µg/mL (≈ 807 µM)	16 µg/mL (≈ 50.4 µM)	90 µg/mL (≈ 284 µM)	> 64 µg/mL	4 to 8 µg/mL (≈ 12.6 to 25.2 µM)	1 µg/mL
O=S(=NC(F)(F)F)(c1ccccc1)c1ccccc1	> 512 µg/mL	> 512 µg/mL	> 512 µg/mL	> 512 µg/mL	200 µg/mL (≈ 701 µM)	–	> 64 µg/mL	200 µg/mL
CS(=O)(=NC(F)(F)F)c1ccccc1 (configuration not stated)	> 512 µg/mL	> 512 µg/mL	> 512 µg/mL	> 512 µg/mL	> 200 µg/mL	–	> 64 µg/mL	–
CS(=N)(=O)c1ccccc1 (configuration not stated)	> 512 µg/mL	> 512 µg/mL	> 512 µg/mL	> 512 µg/mL	> 100 µg/mL	–	–	100 µg/mL
